Assay results published in BigSolDB 2.1.

Oc1ccc(C2(c3ccc(O)cc3)CCCCC2)cc1
solubility (mole fraction) (in 1,4-dioxane, 288.15 K): 0.0609 | solubility (mole fraction) (in 1,4-dioxane, 293.15 K): 0.0621 | solubility (mole fraction) (in 1,4-dioxane, 298.15 K): 0.0676 | solubility (mole fraction) (in 1,4-dioxane, 303.15 K): 0.0731 | solubility (mole fraction) (in 1,4-dioxane, 308.15 K): 0.0866 | solubility (mole fraction) (in 1,4-dioxane, 313.15 K): 0.103 | solubility (mole fraction) (in 1,4-dioxane, 318.15 K): 0.116 | solubility (mole fraction) (in 1,4-dioxane, 323.15 K): 0.127 | solubility (mole fraction) (in 1,4-dioxane, 328.15 K): 0.144 | solubility (mole fraction) (in THF, 288.15 K): 0.182 | solubility (mole fraction) (in THF, 293.15 K): 0.192 | solubility (mole fraction) (in THF, 298.15 K): 0.206 | solubility (mole fraction) (in THF, 303.15 K): 0.221 | solubility (mole fraction) (in THF, 308.15 K): 0.236 | solubility (mole fraction) (in THF, 313.15 K): 0.251 | solubility (mole fraction) (in THF, 318.15 K): 0.268 | solubility (mole fraction) (in THF, 323.15 K): 0.283 | solubility (mole fraction) (in THF, 328.15 K): 0.308 | solubility (mole fraction) (in acetone, 288.15 K): 0.0602 | solubility (mole fraction) (in acetone, 293.15 K): 0.0652 | solubility (mole fraction) (in acetone, 298.15 K): 0.0756 | solubility (mole fraction) (in acetone, 303.15 K): 0.0931 | solubility (mole fraction) (in acetone, 308.15 K): 0.109 | solubility (mole fraction) (in acetone, 313.15 K): 0.127 | solubility (mole fraction) (in acetone, 318.15 K): 0.152 | solubility (mole fraction) (in acetone, 323.15 K): 0.182 | solubility (mole fraction) (in acetone, 328.15 K): 0.219 | solubility (mole fraction) (in ethanol, 288.15 K): 0.0073 | solubility (mole fraction) (in ethanol, 293.15 K): 0.0084 | solubility (mole fraction) (in ethanol, 298.15 K): 0.0096 | solubility (mole fraction) (in ethanol, 303.15 K): 0.0117 | solubility (mole fraction) (in ethanol, 308.15 K): 0.013 | solubility (mole fraction) (in ethanol, 313.15 K): 0.0152 | solubility (mole fraction) (in ethanol, 318.15 K): 0.017 | solubility (mole fraction) (in ethanol, 323.15 K): 0.0186 | solubility (mole fraction) (in ethanol, 328.15 K): 0.0202 | solubility (mole fraction) (in ethyl acetate, 288.15 K): 0.0571 | solubility (mole fraction) (in ethyl acetate, 293.15 K): 0.0681 | solubility (mole fraction) (in ethyl acetate, 298.15 K): 0.0769 | solubility (mole fraction) (in ethyl acetate, 303.15 K): 0.0951 | solubility (mole fraction) (in ethyl acetate, 308.15 K): 0.113 | solubility (mole fraction) (in ethyl acetate, 313.15 K): 0.136 | solubility (mole fraction) (in ethyl acetate, 318.15 K): 0.15 | solubility (mole fraction) (in ethyl acetate, 323.15 K): 0.176 | solubility (mole fraction) (in ethyl acetate, 328.15 K): 0.199 | solubility (mole fraction) (in isopropanol, 288.15 K): 0.0053 | solubility (mole fraction) (in isopropanol, 293.15 K): 0.0061 | solubility (mole fraction) (in isopropanol, 298.15 K): 0.0066 | solubility (mole fraction) (in isopropanol, 303.15 K): 0.0076 | solubility (mole fraction) (in isopropanol, 308.15 K): 0.0089 | solubility (mole fraction) (in isopropanol, 313.15 K): 0.0134 | solubility (mole fraction) (in isopropanol, 318.15 K): 0.0192 | solubility (mole fraction) (in isopropanol, 323.15 K): 0.0243 | solubility (mole fraction) (in isopropanol, 328.15 K): 0.0294 | solubility (mole fraction) (in methanol, 288.15 K): 0.012 | solubility (mole fraction) (in methanol, 293.15 K): 0.0129 | solubility (mole fraction) (in methanol, 298.15 K): 0.0162 | solubility (mole fraction) (in methanol, 303.15 K): 0.0208 | solubility (mole fraction) (in methanol, 308.15 K): 0.0253 | solubility (mole fraction) (in methanol, 313.15 K): 0.0342 | solubility (mole fraction) (in methanol, 318.15 K): 0.0428 | solubility (mole fraction) (in methanol, 323.15 K): 0.0547 | solubility (mole fraction) (in methanol, 328.15 K): 0.0685 | solubility (mole fraction) (in n-butanol, 288.15 K): 0.012 | solubility (mole fraction) (in n-butanol, 293.15 K): 0.0127 | solubility (mole fraction) (in n-butanol, 298.15 K): 0.0133 | solubility (mole fraction) (in n-butanol, 303.15 K): 0.0157 | solubility (mole fraction) (in n-butanol, 308.15 K): 0.0184 | solubility (mole fraction) (in n-butanol, 313.15 K): 0.0236 | solubility (mole fraction) (in n-butanol, 318.15 K): 0.028 | solubility (mole fraction) (in n-butanol, 323.15 K): 0.0348 | solubility (mole fraction) (in n-butanol, 328.15 K): 0.0431 | solubility (mole fraction) (in n-propanol, 288.15 K): 0.032 | solubility (mole fraction) (in n-propanol, 293.15 K): 0.0355 | solubility (mole fraction) (in n-propanol, 298.15 K): 0.0437 | solubility (mole fraction) (in n-propanol, 303.15 K): 0.0563 | solubility (mole fraction) (in n-propanol, 308.15 K): 0.0654 | solubility (mole fraction) (in n-propanol, 313.15 K): 0.0789 | solubility (mole fraction) (in n-propanol, 318.15 K): 0.0896 | solubility (mole fraction) (in n-propanol, 323.15 K): 0.103 | solubility (mole fraction) (in n-propanol, 328.15 K): 0.121
